Measurements reported in patent EP4775575A1, “COMPOUND USED AS CDK4 KINASE INHIBITOR AND USE THEREOF” (TYK Medicines, Inc., priority 2023, dated 2025).

Key:
[1] = test system: human ovarian cancer cells A2780; assay: Cell anti-proliferation assay (MTT), A2780; type: cell-based; conditions: Homo sapiens, 120 h, incubated for 5 days
Protocol: (§1) Human breast cancer cells MCF-7, human ovarian cancer cells A2780, human mantle cell lymphoma cells JEKO-1. DMEM medium (Bio-Channel), DMSO (dimethyl sulfoxide), MTT (thiazolyl blue), 0.25% EDTA-Trypsin (trypsin digestive solution), 1×PBS (phosphate buffered saline, pH 7.2), 96-well plate (Corning), fetal bovine serum (FBS), 10,000 U/mL penicillin-G/streptomycin, high-speed refrigerated centrifuge (EPPENDORF 5810R), and microplate reader (Tecan Spark).
(§2) • A) Tumor cells were cultured in DMEM (high glucose, containing 10% FBS and 100 U/mL penicillin-G/streptomycin) at 37 °C, 5% CO2 and saturated humidity until 80-90% confluence. • B) The medium in the 10 cm culture dish was removed. • C) Cells were rinsed once with 10 mL of 1×PBS. • D) 4 mL of 0.25% EDTA-Trypsin was added, and the cells were digested in a 37 °C, 5% CO2 incubator for 5 minutes. The mixture was transferred to a 15 mL centrifuge tube, centrifuged at 200 g for 5 minutes, and the supernatant was discarded to obtain cell pellet. • E) The cells were resuspended in 4 mL of DMEM medium, counted, and adjusted to 50,000 cells/mL. • F) 100 µL of cell suspension was added to each well of a 96-well plate, and the plate was incubated overnight at 37 °C in a 5% CO2 incubator.
(§3) • A) Gradient dilution solutions of the test compounds were prepared: the test compound was prepared into a 1 mM stock solution. Then 1.5 µL of the stock solution was dissolved in 1.5 mL of DMSO-free medium, followed by 3-fold serial gradient dilution with medium containing 0.1% DMSO to give 9 concentrations.
(§4) • A) The cell culture plate was taken out, and 10 µL of 5 mg/mL MTT was added in a biological safety cabinet; • B) The plate was returned to the incubator and incubated for another 3 hours; • C) The cell culture plate was taken out and the medium was removed, 100 µL of isopropanol (containing 0.4 mM HCl, 0.1% NP-40) was added, and the plate was shaken at room temperature for 30 minutes; • D) The absorbance at 570 nm was measured using a TECAN microplate reader.

CDK6/CyclinD3 = target: T1, CDK6/CyclinD3 (Homo sapiens, UniProt Q00534); assay: Kinase activity assay (MSA, EZ Reader) against CDK6; type: biochemical; conditions: CDK6/CyclinD3 5.00 nM, ATP 350 µM, FL-Peptide34, 10mM MgCl2
T1 construct: purchased Carna 04-107
T1 sequence (Q00534 whole entry): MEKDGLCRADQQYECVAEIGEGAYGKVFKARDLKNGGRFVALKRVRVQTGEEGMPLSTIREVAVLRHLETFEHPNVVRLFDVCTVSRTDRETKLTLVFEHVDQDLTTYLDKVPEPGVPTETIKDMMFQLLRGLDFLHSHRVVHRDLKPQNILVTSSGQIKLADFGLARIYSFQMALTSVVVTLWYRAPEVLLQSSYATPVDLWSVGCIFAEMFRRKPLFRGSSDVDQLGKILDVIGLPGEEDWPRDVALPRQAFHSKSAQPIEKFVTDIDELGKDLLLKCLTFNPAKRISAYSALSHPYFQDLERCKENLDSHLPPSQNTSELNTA
T1 sequence (P30281 whole entry partner): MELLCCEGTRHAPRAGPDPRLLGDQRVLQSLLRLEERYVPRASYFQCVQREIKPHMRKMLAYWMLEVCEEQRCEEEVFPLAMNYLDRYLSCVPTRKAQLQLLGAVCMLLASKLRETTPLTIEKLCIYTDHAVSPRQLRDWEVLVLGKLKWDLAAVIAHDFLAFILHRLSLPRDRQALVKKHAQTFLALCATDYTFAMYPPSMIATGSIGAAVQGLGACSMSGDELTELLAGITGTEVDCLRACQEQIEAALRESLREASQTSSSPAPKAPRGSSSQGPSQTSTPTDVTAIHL

[2] = test system: human mantle cell lymphoma cells JEKO-1; assay: Cell anti-proliferation assay (MTT), JEKO-1; type: cell-based; conditions: Homo sapiens, 120 h, JEKO-1 cells, incubated for 5 days
Protocol: as §1, §2, §3, §4

CDK4/CycD1 = CDK4/CycD1 (Homo sapiens, UniProt P11802); assay: Kinase activity assay (MSA, EZ Reader) against CDK4
CDK4/CycD1, sequence (P11802 whole entry): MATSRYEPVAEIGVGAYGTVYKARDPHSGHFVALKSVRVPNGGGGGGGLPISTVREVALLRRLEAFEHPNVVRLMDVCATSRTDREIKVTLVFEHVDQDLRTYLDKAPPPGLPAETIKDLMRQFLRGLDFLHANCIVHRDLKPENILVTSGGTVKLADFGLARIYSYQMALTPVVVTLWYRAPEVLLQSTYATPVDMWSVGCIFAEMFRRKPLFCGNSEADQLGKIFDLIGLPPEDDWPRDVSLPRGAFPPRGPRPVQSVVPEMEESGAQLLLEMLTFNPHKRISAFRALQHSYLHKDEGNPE

[3] = test system: Human breast cancer cells MCF-7; assay: Cell anti-proliferation assay (MTT), MCF-7; type: cell-based; conditions: Homo sapiens, MCF7, 120 h, MCF-7 cells, incubated for 5 days
Protocol: as §1, §2, §3, §4

[4] = Preclinical pharmacokinetic study in rats; type: in vivo, Sprague-Dawley (SD) rats; conditions: male SD rats, oral gavage (p.o.) 10 mg/kg, plasma
Protocol: Healthy adult Sprague-Dawley (SD) rats, male, 6-8 weeks old, weighing 200-300 g. EDTA-Na2 anticoagulant. Analytical balance, animal weighing scale, magnetic stirrer, refrigerated centrifuge, single-channel manual pipette, etc. About 10 mg of the test sample was precisely weighed, dissolved in a calculated volume of 5% DMSO, followed by addition of 10% solutol HS-15 and 85% normal saline. The mixture was sonicated and vortexed to homogeneity to obtain a solution with a concentration of 1 mg/mL. The solution was freshly prepared before use. Animals were housed in rat cages and fasted overnight (no less than 10 h) before the test, with free access to water. On the day of the test, animals were weighed and marked on the tail. Blank blood samples were collected before administration. The blood was collected via tail vein. • Route of administration: oral gavage (p.o.) • Dose: 10 mg/kg • Dosing volume: 10 mL/kg • Procedure: The rat was held upright with the left hand wearing bite-resistant glove. A 16-gauge gavage needle was inserted through the mouth into the esophagus. The needle was advanced gently without obvious resistance, and the drug solution was injected into the stomach. Whole blood (0.1 mL) were collected from each test animal before administration and at 0.5 […], and 24 h after administration into EDTA-Na2 anticoagulant tubes. The tubes were inverted 3-4 times for mixing, then centrifuged at 10,000 g for 5 min at 4 °C to separate plasma. Plasma samples were stored at -80 °C until analysis. Blood was collected via tail vein. […] The mixture was vortexed for 2 min and centrifuged at 10,000 g for 10 min at 4 °C. Processing of unknown plasma samples: 25 μL of drug-containing rat plasma was transferred, followed by addition of 25 μL of methanol and 200 μL of internal standard solution. The mixture was vortexed for 2 min and centrifuged at 10,000 g for 10 min at 4 °C. The supernatant was collected for LC-MS/MS analysis. A quantitative method for the determination of the test compound was established using a Shimadzu liquid chromatography system coupled with Triple Quad^TM 6500+ AB mass spectrometer. The concentration of the parent drug in plasma was determined. The plasma concentration-time curve was plotted, and the main pharmacokinetic parameters were calculated using a non-compartmental model in winnonlin Phoenix software.

SMILES	IC50 [1] [nM]	IC50 (CDK6/CyclinD3) [nM]	IC50 [2] [nM]	IC50 (CDK4/CycD1) [nM]	IC50 [3] [nM]	AUC(0-t) ([4]; Sprague-Dawley, rat) [ng·h/mL]	Cmax ([4]; Sprague-Dawley, rat) [ng/mL]	Tmax ([4]; Sprague-Dawley, rat) [min]	HL_ [4] [h]
CC(C)n1c(N(C)C)nc2c(F)cc(-c3nc(N[C@@H]4CCOC[C@H]4O)ncc3Cl)cc21 [TB-1]	≤ 500	67.8	≤ 500	3.7	≤ 500	–	–	–	–
CC(C)n1c(N(C)C)nc2c(F)cc(-c3nc(N[C@H]4CC[C@@H](NS(C)(=O)=O)CC4)ncc3Cl)cc21 [TB-4]	–	–	–	27.1	–	–	–	–	–
CNS(=O)(=O)c1ccc(Nc2ncc(Cl)c(-c3cc(F)c4nc(N(C)C)n(C(C)C)c4c3)n2)cc1 [TB-20, 4-((5-chloro-4-(2-(dimethylamino)-4-fluoro-1-isopropyl-1H-benzo[d]imidazol-6-yl)pyrimidin-2-yl)amino)-N-methylbenzenesulfonamide]	–	141	–	44.6	–	–	–	–	–
CC(C)n1c(N2CCCC2=O)nc2c(F)cc(-c3nc(N[C@@H]4CCOC[C@H]4O)ncc3Cl)cc21 [TB-23]	–	–	–	185	–	–	–	–	–
CN1CCCn2c1nc1c(F)cc(-c3nc(N[C@@H]4CCOC[C@H]4O)ncc3F)cc12 [TB-42, (3S,4R)-4-((5-fluoro-4-(9-fluoro-1-methyl-1,2,3,4-tetrahydrobenzo[4,5]imidazo[1,2-a]pyrimidin-7-yl)pyrimidin-2-yl)amino)tetrahydro-2H-pyran-3-ol]	≤ 500	195	≤ 500	–	≤ 500	–	–	–	–
CN1CCn2c1nc1c(F)cc(-c3nc(N[C@@H]4CCOC[C@H]4O)ncc3Cl)cc12 [TB-45, (3S,4R)-4-((5-chloro-4-(8-fluoro-1-methyl-2,3-dihydro-1H-benzo[d]imidazo[1,2-a]imidazol-6-yl)pyrimidin-2-yl)amino)tetrahydro-2H-pyran-3-ol]	≤ 500	241	≤ 500	–	≤ 500	–	–	–	–
CN1C(=O)CCn2c1nc1c(F)cc(-c3nc(N[C@@H]4CCOC[C@H]4O)ncc3Cl)cc12 [TB-46, 7-(5-chloro-2-(((3S,4R)-3-hydroxytetra hydro-2H-pyran-4-yl)amino)pyrimidin-4-yl)-9-fluoro-1-methyl-3,4-dihydrobenzo[4,5]imidazo[1,2-a]pyrimidin-2(1H)-one]	≤ 500	244	≤ 500	–	≤ 500	–	–	–	–
CN1CCn2c1nc1c(F)cc(-c3nc(NC4CCN(S(C)(=O)=O)CC4)ncc3Cl)cc12 [TB-52, 5-chloro-4-(8-fluoro-1-methyl-2,3-dihydro-1H-benzo[d]imidazo[1,2-a]imidazol-6-yl)-N-(1-(methylsulfonyl)piperidin-4-yl)pyrimidin-2-amine]	≤ 500	40.6	≤ 500	–	≤ 500	–	–	–	–
CC(C)n1c(N2CCOC2=O)nc2c(F)cc(-c3nc(Nc4ccc(S(C)(=O)=O)cc4)ncc3Cl)cc21 [TB-54, 3-(6-(5-chloro-2-((4-(methylsulfonyl)phenyl)amino)pyrimidin-4-yl)-4-fluoro-1-isopropyl-1H-benzo[d]imidazol-2-yl)oxazolidin-2-one]	–	411	–	101	–	–	–	–	–
CN1CCCn2c1nc1c(F)cc(-c3nc(Nc4ccncc4)ncc3Cl)cc12 [TB-90]	≤ 500	95.2	≤ 500	–	500 to 2000	–	–	–	–
C[C@@H]1CCN(C)c2nc3c(F)cc(-c4nc(N[C@@H]5CCOC[C@H]5O)ncc4Cl)cc3n21 [TB-91, (3S,4R)-4-((5-chloro-4-((R)-9-fluoro-1,4-dimethyl-1,2,3,4-tetrahydrobenzo[4,5]imidazo[1,2-a]pyrimidin-7-yl)pyrimidin-2-yl)amino)tetrahydro-2H-pyran-3-ol]	≤ 500	68.4	≤ 500	–	≤ 500	–	–	–	–
C[C@H]1CCN(C)c2nc3c(F)cc(-c4nc(N[C@@H]5CCOC[C@H]5O)ncc4Cl)cc3n21 [TB-92, (3S,4R)-4-((5-chloro-4-((S)-9-fluoro-1,4-dimethyl-1,2,3,4-tetrahydrobenzo[4,5]imidazo[1,2-a]pyrimidin-7-yl)pyrimidin-2-yl)amino)tetrahydro-2H-pyran-3-ol]	≤ 500	123	≤ 500	–	≤ 500	5020	1940	30	1.21
CC(C)n1c(N2CCOC2=O)nc2c(F)cc(-c3ccnc(NC4CCN(S(C)(=O)=O)CC4)n3)cc21 [TB-94]	–	458	–	44.4	–	–	–	–	–
C[C@H]1CCN(C)c2nc3c(F)cc(-c4nc(N[C@@H]5CCN(S(C)(=O)=O)C[C@H]5O)ncc4Cl)cc3n21 [TB-96]	–	20.3	–	2.1	–	–	–	–	–
COCc1cc(Nc2ncc(Cl)c(-c3cc(F)c4nc5n(c4c3)CCCN5C)n2)ccn1 [TB-130, 5-chloro-4-(9-fluoro-1-methyl-1,2,3,4-tetrahydrobenzo[4,5]imidazo[1,2-a]pyrimidin-7-yl)-N-(2-(methoxymethyl)pyridin-4-yl)pyrimidin-2-amine]	≤ 500	155	≤ 500	–	≤ 500	–	–	–	–
CN1CCCn2c1nc1c(F)cc(-c3nc(NC4CCOCC4)ncc3Cl)cc12 [TB-132, 5-chloro-4-(9-fluoro-1-methyl-1,2,3,4-tetrahydrobenzo[4,5]imidazo[1,2-a]pyrimidin-7-yl)-N-(tetrahydro-2H-pyran-4-yl)pyrimidin-2-amine]	≤ 500	246	≤ 500	–	500 to 2000	–	–	–	–
CC(C)n1c(N2CCCOC2=O)nc2c(F)cc(-c3nc(NC4CCN(S(C)(=O)=O)CC4)ncc3Cl)cc21 [TB-142]	–	361	–	69.5	–	–	–	–	–
CCS(=O)(=O)N1CCC(Nc2ncc(Cl)c(-c3cc(F)c4nc5n(c4c3)CCCN5C)n2)CC1 [TB-143, 5-chloro-N-(1-(ethylsulfonyl)piperidin-4-yl)-4-(9-fluoro-1-methyl-1,2,3,4-tetrahydrobenzo[4,5]imidazo[1,2-a]pyrimidin-7-yl)pyrimidin-2-amine]	≤ 500	58.3	≤ 500	–	≤ 500	–	–	–	–
CNS(=O)(=O)N1CCC(Nc2ncc(Cl)c(-c3cc(F)c4nc5n(c4c3)CCCN5C)n2)CC1 [TB-144, 4-((5-chloro-4-(9-fluoro-1-methyl-1,2,3,4-tetrahydrobenzo[4,5]imidazo[1,2-a]pyrimidin-7-yl)pyrimidin-2-yl)amino)-N-methylpiperidine-1-sulfonamide]	≤ 500	126	≤ 500	–	≤ 500	–	–	–	–
CC1(C)Cn2c(nc3c(F)cc(-c4nc(N[C@@H]5CCOC[C@H]5O)ncc4Cl)cc32)S(=O)(=O)C1 [TB-148]	–	222	–	71.4	–	–	–	–	–
